Measured values published in patent US8747362B2, “Microneedle device” (Hisamitsu Pharmaceutical Co., Inc, priority 2009, dated 2014).

Assays:
[1] = Viscosity measurement of carrier (coating agent) by micron-sample viscometer; assay type: physicochemical; conditions: 25° C., average of 10
Method: • Material: Polylactic acid having a weight average molecular weight of about 80,000, Height: 500 μm, Density: 625 needles/cm^2, Formulation area of a microneedle base: 1 cm^2/patch (b) Metal Mask Plate • Pitch: 400 μm, Mask thickness: 100 μm, Opening: square shape (one side: 250 μm) (c) Environmental Setting: Room Temperature (25° C.)
The concentration of octreotide acetate and the concentration of propylene glycol or glycerin were set as shown in Table 3 and Table 4, and the materials were set in a rotating/revolving mixer to prepare a carrier (a coating agent). The viscosity of the obtained carrier (the coating agent) was measured 10 times by use of a micron-sample viscometer (RHEOSENSE INC., Micron Sample-Viscometer/Rheometer-on-a-chip VROCTM); calculated average values are shown in. Table 3 and Table 4.

[2] = Content (amount deposited) of octreotide acetate per patch of microneedle device, BCA method; assay type: physicochemical; conditions: average of 10
Method: • Material: Polylactic acid having a weight average molecular weight of about 80,000, Height: 500 μm, Density: 625 needles/cm^2, Formulation area of a microneedle base: 1 cm^2/patch (b) Metal Mask Plate • Pitch: 400 μm, Mask thickness: 100 μm, Opening: square shape (one side: 250 μm) (c) Environmental Setting: Room Temperature (25° C.) The concentration of octreotide acetate and the concentration of propylene glycol or glycerin were set as shown in Table 3 and Table 4, and the materials were set in a rotating/revolving mixer to prepare a carrier (a coating agent). Application of the carrier (the coating agent) to microneedles was performed by a predetermined method. More specifically, the carrier the coating agent) was swept by a spatula to fill openings of a metal mask with the carrier. Microneedles (needles) were inserted in the openings thus filled, and then taken out therefrom, and subsequently, the carrier (the coating agent) thus applied on the microneedles was extracted by purified water. By a BCA method (an octreotide standard), the content (an amount deposited) of octreotide acetate per one patch (sheet) of a microneedle device was measured 10 times; calculated average values are shown in Table 3 and Table 4.

[3] = carrier: octreotide acetate 20 / glycerin 80 % by weight
[4] = carrier: octreotide acetate 20 / propylene glycol 80 % by weight
[5] = carrier: octreotide acetate 30 / glycerin 70 % by weight
[6] = carrier: octreotide acetate 35 / glycerin 65 % by weight
[7] = carrier: octreotide acetate 40 / glycerin 60 % by weight
[8] = carrier: octreotide acetate 40 / propylene glycol 60 % by weight
[9] = carrier: octreotide acetate 50 / glycerin 50 % by weight
[10] = carrier: octreotide acetate 50 / propylene glycol 50 % by weight
[11] = carrier: octreotide acetate 60 / glycerin 40 % by weight
[12] = carrier: octreotide acetate 60 / propylene glycol 40 % by weight
[13] = carrier: octreotide acetate 70 / propylene glycol 30 % by weight
[14] = carrier: octreotide acetate 80 / propylene glycol 20 % by weight

Viscosity Avg. [1, 3]: 2900 cps
Viscosity Avg. [1, 4]: 200 cps
Viscosity Avg. [1, 5]: 9000 cps
Viscosity Avg. [1, 6]: 12000 cps
Viscosity Avg. [1, 7]: 15000 cps
Viscosity Avg. [1, 8]: 1600 cps
Viscosity Avg. [1, 9]: 21000 cps
Viscosity Avg. [1, 10]: 5400 cps
Viscosity Avg. [1, 11]: 27000 cps
Viscosity Avg. [1, 12]: 15000 cps
Viscosity Avg. [1, 13]: 45000 cps
Viscosity Avg. [1, 14]: 133000 cps
Content Avg. [2, 3]: 6 μg/patch
Content Avg. [2, 4]: 4 μg/patch
Content Avg. [2, 5]: 39 μg/patch
Content Avg. [2, 6]: 53 μg/patch
Content Avg. [2, 7]: 89 μg/patch
Content Avg. [2, 8]: 36 μg/patch
Content Avg. [2, 9]: 169 μg/patch
Content Avg. [2, 10]: 121 μg/patch
Content Avg. [2, 11]: 149 μg/patch
Content Avg. [2, 12]: 243 μg/patch
Content Avg. [2, 13]: 237 μg/patch
Content Avg. [2, 14]: 97 μg/patch
Compound: C[C@@H](O)[C@@H]1NC(=O)[C@H](CCCCN)NC(=O)[C@@H](Cc2c[nH]c3ccccc23)NC(=O)[C@H](Cc2ccccc2)NC(=O)[C@@H](NC(=O)[C@H](N)Cc2ccccc2)CSSC[C@@H](C(=O)N[C@H](CO)[C@@H](C)O)NC1=O [Octreotide acetate, octreotide acetate]
